In ChEMBL document CHEMBL5725243, “Cyclopentylbenzamide derivatives and their use for the treatment of psychotic and cognitive disorders” (2016) one finds IC50 data, which are given here for three compounds.

One assay deals with T1, Orexin receptor type 2 (Homo sapiens, UniProt O43614).
T1 sequence (O43614 whole entry): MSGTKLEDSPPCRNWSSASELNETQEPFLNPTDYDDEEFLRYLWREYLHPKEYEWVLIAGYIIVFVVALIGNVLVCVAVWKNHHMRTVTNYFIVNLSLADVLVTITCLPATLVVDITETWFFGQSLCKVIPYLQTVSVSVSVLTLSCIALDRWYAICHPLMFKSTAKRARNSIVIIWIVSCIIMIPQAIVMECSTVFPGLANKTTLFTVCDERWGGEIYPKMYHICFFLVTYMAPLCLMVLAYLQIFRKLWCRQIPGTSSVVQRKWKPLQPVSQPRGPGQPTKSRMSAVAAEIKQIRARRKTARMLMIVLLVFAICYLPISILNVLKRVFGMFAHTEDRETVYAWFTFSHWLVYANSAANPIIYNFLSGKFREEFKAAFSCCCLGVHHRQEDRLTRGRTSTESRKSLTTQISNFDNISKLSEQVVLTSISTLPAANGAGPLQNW
In words: (§1) Fluorescent Imaging Plate Reader (FLIPR) Assay: Orexin antagonist activity was determined by measuring changes in intracellular calcium levels using a Ca2+ sensitive fluorescent dye. The changes in fluorescent signal were monitored by Fluorescent Imaging Plate Reader (FLIPR) technology available from Molecular Devices, LLC, U.S.A. Orexin mediated increases in intracellular Ca2+ concentration were readily detected upon activation with orexin-A. Twenty-four hours prior to the assay, RBL-2H3 cells stably expressing either human orexin receptor 1 or human orexin receptor 2 were seeded in cell culture medium in black, clear-bottom 384-well plates (commercially available from Corning Inc., U.S.A.) and grown overnight at 37° C., 5% CO2. On the day of the assay, cell culture media was removed and cells were loaded with Calcium 5 Dye (commercially sold by Molecular Devices, LLC, U.S.A.) for 1 hour at 37° C., 5% CO2. Test compounds (at 10 point half log concentration response curves from 10 uM) were added to cells for 15 minutes prior to the addition of orexin-A to all wells, to achieve a final concentration that produces approximately an 80% maximal response. The IC50 values were determined from ten point concentration response curves. Curves were generated using the average of two wells for each data point. The format is cell-based. (Calcium flux is commonly read through the fluorescence of an indicator in the cells.)

Assay [1] has as its target T2, Orexin/Hypocretin receptor type 1 (Homo sapiens, UniProt O43613).
T2 sequence (O43613 whole entry): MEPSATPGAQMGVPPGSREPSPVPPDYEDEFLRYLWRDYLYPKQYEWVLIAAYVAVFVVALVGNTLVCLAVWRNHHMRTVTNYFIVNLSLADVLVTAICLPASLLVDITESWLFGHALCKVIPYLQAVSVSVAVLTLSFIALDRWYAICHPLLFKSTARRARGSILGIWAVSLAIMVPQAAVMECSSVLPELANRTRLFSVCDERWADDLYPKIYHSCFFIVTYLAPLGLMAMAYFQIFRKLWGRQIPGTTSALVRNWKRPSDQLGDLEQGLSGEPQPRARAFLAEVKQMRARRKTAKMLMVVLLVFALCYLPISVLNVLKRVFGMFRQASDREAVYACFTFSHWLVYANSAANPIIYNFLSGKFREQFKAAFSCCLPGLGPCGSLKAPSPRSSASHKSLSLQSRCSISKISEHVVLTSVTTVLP
The description is as §1. The class given is cell-based.

Take `Cc1ccc(-n2nccn2)c(C(=O)N[C@H]2CCC[C@@H]2Nc2ncc3ccccc3n2)c1`: the IC50 on Orexin receptor type 2 was greater than 10000 nM; in assay [1], 24 nM.

As to `CCOc1cccc(OCC)c1C(=O)N[C@@H]1CCC[C@@H]1Nc1nc2ccccc2o1`, the half-inhibitory concentration (IC50) at Orexin receptor type 2 is 1200 nM; in assay [1] it was 130 nM.

For the compound `COc1cccc(OC)c1C(=O)N[C@@H]1COC[C@@H]1Nc1nc2ccc(Cl)cc2s1` (relative stereo), the half-inhibitory concentration (IC50) turned out to be 1400 nM on Orexin receptor type 2 and 220 nM in assay [1].

The IC50 is the concentration at which inhibition is half-maximal.
